Data set [1] concerns the target T1, human TREK-1 channel (Homo sapiens, UniProt O95069). To be noted: h-TREK-1/HEK cells, current at 0 mV, n = 10 to 12.
Method: (§1) The human-TREK-1/HEK293 cell line (h-TREK-1/HEK) (Moha ou Maati et al. [2011a]) and HEK-IKS cell line (Ducroq et al. [2010]) were grown in the presence of 0.5 mg/mL G418 in Dulbecco’s modified Eagle’s medium supplemented with 10 % (v/v) heat-inactivated fetal bovine serum containing 1 % (v/v) penicillin/streptomycin in an atmosphere of 95 % air/5 % CO2 as previously described (Moha ou Maati et al. [2011a]).
(§2) All electrophysiological experiments were performed on h-TREK-1/HEK cells seeded at a density of 20,000 cells/35 mm dish after 2–6 days of culture. All electrophysiological recordings were performed in whole cell configuration of the patch clamp technique except for IKS measures which were obtained by using the patch clamp perforated configuration (amphotericin B 0.9 mg/mL in the pipette medium) (Moha ou Maati et al. [2011b]). Each current was evaluated by using a RK 400 patch clamp amplifier (Axon Instrument, USA), low-pass filtered at 3 kHz, and digitized at 10 kHz using a 12-bit analog-to-digital converter digidata (1322 series, Axon Instrument, USA). All current amplitudes are expressed in current densities. Results are expressed as mean ± standard error of the mean (SEM). […] The bath solution contained (in mM) 150 NaCl, 5 KCl, 3 MgCl2, 1 CaCl2, and 10 4-(2-hydroxyethyl)piperazine 1- ethane sulfonic acid (HEPES) adjusted to pH 7.4 with NaOH. The pipette solution contained (in mM) 155 KCl, 3 MgCl2, 5 EGTA, and 10 HEPES adjusted to pH 7.2 with KOH. TREK-1 currents were evaluated at room temperature (21–22 °C) in the presence of a cocktail of potassium channel inhibitors (K^+ blockers, 3 mM 4-aminopyridine (4-AP), 10 mM tetraethylammonium (TEA), 10 μM glibenclamide, 100 nM apamin, and 50 nM charybdotoxin). Stimulation protocols and data acquisition were carried out using a microcomputer (Dell Pentium) with a commercial software and hardware (pClamp 8.2). Currents were recorded by voltage clamp steps to membrane potentials of −100 to +60 mV in 20-mV steps applied from a holding potential of −80 mV. The duration of depolarization pulses was 825 ms, and the pulse cycling rate was 5 s. TREK-1 current amplitudes were evaluated at the end of stimulation pulses. Cells were continuously superfused with microperfusion system.
(§3) All experiments were performed on h-TREK-1/HEK cell line in the presence of a mixture of K^+ channels blockers and by using the whole cell configuration of the patch clamp technique. a Control currents (black-filled circles, K^+ blockers) were amplified by the application of 10 μM of arachidonic acid (white-filled circles, K^+ blockers + AA).
Data set [2] concerns C57Bl/6J mice. To be noted: for FST immobility time, subchronic treatment: 10 μg/kg i.v. once a day for 4 days, test on day 5, mean ± SEM, saline 161.80 ± 8.12 s; for FST immobility time, acute treatment: 10 μg/kg single i.v. bolus, 30 min before the test, saline 166.13 ± 5.54 s; for FST immobility time, acute treatment / FST immobility time 1 h after injection (action duration): n = 10, mean ± SEM; for FST immobility time 1 h after injection (action duration): naïve mice at each time; for FST immobility time 1 h after injection (action duration) / FST immobility time 16 h after injection (action duration): saline 170.3 ± 4.5 s (spadin series), 162.7 ± 4.7 s (analog series); for FST immobility time 16 h after injection (action duration): naïve mice, mean ± SEM.
Method: Naïve male C57Bl/6J mice from 7 to 9 weeks old were used in all experiments (Janvier Laboratory, Saint Berthevin, France). Mice were housed (10 animals per cage) under a 12:12 light–dark cycle (light on at 8:00 am) in a ventilated room at a temperature of 22 ± 1 °C. Animals had free access to water and food (A03; SAFE, Augy, France). All experiments were conducted according to policies on the care and use of laboratory animals of the Society for Neuroscience and also with respect to national laws on animal use.
(§4) For acute treatment, drugs were administered in a single 100-μL bolus 30 min prior to the beginning of the behavioral tests. For subchronic treatment, drugs were injected during four consecutive days, and behavioral tests were performed on day 5, without additional injection.
The animals were individually placed in a non-escapable cylinder (height 30 cm, diameter 15 cm) filled with 15-cm water at 22 ± 1 °C. The trial was conducted for 6 min. The total period of immobility was manually measured during the last 4 min of the test. A mouse was considered immobile when it remained floating with only slight movements to keep its head above water.

Data set [3] relates to C57Bl/6J mice. The following applies: 10 μg/kg i.v. once a day for 4 days, test on day 5, mean ± SEM; saline 305.00 ± 62.47 s.
Method: Naïve male C57Bl/6J mice from 7 to 9 weeks old were used in all experiments (Janvier Laboratory, Saint Berthevin, France). Mice were housed (10 animals per cage) under a 12:12 light–dark cycle (light on at 8:00 am) in a ventilated room at a temperature of 22 ± 1 °C. Animals had free access to water and food (A03; SAFE, Augy, France).
as §4
The NSF paradigm is a 2-day test protocol. On day 1, mice were deprived from food. On day 2, mice were placed in a highly brightly lit area, in a plastic box (45 × 45 × 20 cm), with a floor covered with wooden bedding. The test was carried out during a 10-min period. During this time, the latency to eat was measured. During the test, a single pellet of food was placed in the center of the box, on a white platform.
Data set [4] deals with C57Bl/6J mice. To be noted: 10 μg/kg i.v. for four consecutive days, hippocampal dentate gyrus.
Method: One day after 5-bromo-2′-deoxyuridine (BrdU) injections, 12 mg per animal divided in four bolus of 300 μL injected every 2 h, mice were anesthetized with isoflurane and transcardially perfused with 20 mL of NaCl 0.9 % followed by 20 mL paraformaldehyde 4 %/NaCl 0.9 %. By using a vibratome (Leica), brains were cut into 40-μm sections, throughout the entire hippocampus. […] For each BrdU labeling, slices were first incubated with a mouse monoclonal anti-BrdU antibody (1/8,000, Becton Dickinson). For chromogenic immunodetection, sections were incubated during 2 h in biotin-conjugated species-specific secondary antibodies (1/400; Vector laboratories) followed by a peroxidase-avidin complex solution, to amplify the reaction. The peroxidase activity of immune complex was visualized with DAB staining using the VectaStain ABC kit according to the manufacturer’s protocol (Vector Laboratories).
In data set [5] the target is T1, human TREK-1 channel. Briefly: cell-based.
Method: as §1, §2, §3
Data set [6] has as its system C57Bl/6J mice. To be noted: water bath 48 °C, 10 μg/kg i.v. 30 min before the test, n = 10 per group, two determinations averaged, mean ± SEM; saline 12.75 ± 0.96 s.
Method: The tail was immersed in a water bath at 48 °C until withdrawal was observed (cutoff time 30 s). Two separate withdrawal latency time determinations were averaged (Alloui et al. [2006]).
For each mouse, the time to withdraw its tail immersed in a water bath at 48 °C was measured twice and averaged.
Data set [7] has as its system C57Bl/6J mice. To be noted: 10^-5 M in 100 μL bolus i.v. 30 min before the test, monitored 24 h, n = 8 per group.
Method: Locomotor activity was monitored individually for 24 h using an infrared photobeam activity monitoring system (Imetronic, Pessac, France), which measured consecutive horizontal beam breaks. […] Locomotor activity was defined as breaking of consecutive photobeams. Movements were recorded and totalized for each 10-min time section. Six periods were pooled to obtain data for 1 h of time. Different movements were monitored: the coming-and-going between the back and the front of the cage, climbing, and other movements in the back or the front of the cage. Mice were kept under standard laboratory conditions: 12:12 light–dark cycle with free access to food and water during the experiment.
Mice were injected 30 min before to be placed in an infrared photobeam activity monitoring system. Spontaneous locomotor activity was monitored individually for 24 consecutive hours. The number of coming-and-going (a), climbing (b), and total movements except climbing (c) were monitored for each mouse for 10 min section and pooled by 6 to obtain values corresponding to 1 h.
Data set [8] has as its system C57Bl/6J mice. To be noted: kaïnate 25 mg/kg i.p.
Method: Kaïnate solutions were prepared in a solution of 140 mM NaCl (saline solution).
Mice (n = 10 per group) were monitored during 2 h for onset and extent of seizures. Six levels of seizure severity were defined: (1) immobility, (2) head/neck movements, (3) clonic unilateral activity, (4) clonic bilateral activity, (5) generalized convulsions, and (6) death. Seizure severity was blindly scored (Tsirka et al. [1995]). The seizure index was calculated by averaging the points for seizure activity in each group (n = 10 per treatment).
Data set [9] addresses hERG channel (IKR) (Homo sapiens, UniProt Q12809). The following applies: 10 μM.
Method: HEK-293 native cells were grown in serum in an atmosphere of 95 % air/5 % CO2 in Dulbecco’s modified Eagle’s medium supplemented with 10 % (v/v) heat-inactivated fetal bovine containing 1 % (v/v) of penicillin/ streptomycin and Glutamax X 1. Cells were plated at a density of 20,000 cells/35 mm dish, and after 24 h, cells were transfected using the Jet PEI method (Polyplus, France) with 25 ng/35 mm dish of p-IRES-HERG channel vector. Patch clamp experiments were carried out 48 h after transfection.
All electrophysiological recordings were performed in whole cell configuration of the patch clamp technique except for IKS measures which were obtained by using the patch clamp perforated configuration (amphotericin B 0.9 mg/mL in the pipette medium) (Moha ou Maati et al. [2011b]). Each current was evaluated by using a RK 400 patch clamp amplifier (Axon Instrument, USA), low-pass filtered at 3 kHz, and digitized at 10 kHz using a 12-bit analog-to-digital converter digidata (1322 series, Axon Instrument, USA). All current amplitudes are expressed in current densities. Results are expressed as mean ± standard error of the mean (SEM). […] The bath solution contained (in mM) 150 NaCl, 5 KCl, 3 MgCl2, 1 CaCl2, and 10 4-(2-hydroxyethyl)piperazine 1- ethane sulfonic acid (HEPES) adjusted to pH 7.4 with NaOH. The pipette solution contained (in mM) 155 KCl, 3 MgCl2, 5 EGTA, and 10 HEPES adjusted to pH 7.2 with KOH. […] Stimulation protocols and data acquisition were carried out using a microcomputer (Dell Pentium) with a commercial software and hardware (pClamp 8.2). Currents were recorded by voltage clamp steps to membrane potentials of −100 to +60 mV in 20-mV steps applied from a holding potential of −80 mV. The duration of depolarization pulses was 825 ms, and the pulse cycling rate was 5 s. […] Cells were continuously superfused with microperfusion system.
Tail currents were generated by repolarization to −40 mV. […] The amplitudes of IKS and IKR currents were calculated at both the end of the first pulse and the peak of the tail pulse.
The target in data set [10] is human-IKS current (Homo sapiens, UniProt P51787). To be noted: 10 μM.
Method: as §1
All electrophysiological recordings were performed in whole cell configuration of the patch clamp technique except for IKS measures which were obtained by using the patch clamp perforated configuration (amphotericin B 0.9 mg/mL in the pipette medium) (Moha ou Maati et al. [2011b]). Each current was evaluated by using a RK 400 patch clamp amplifier (Axon Instrument, USA), low-pass filtered at 3 kHz, and digitized at 10 kHz using a 12-bit analog-to-digital converter digidata (1322 series, Axon Instrument, USA). All current amplitudes are expressed in current densities. Results are expressed as mean ± standard error of the mean (SEM). […] The bath solution contained (in mM) 150 NaCl, 5 KCl, 3 MgCl2, 1 CaCl2, and 10 4-(2-hydroxyethyl)piperazine 1- ethane sulfonic acid (HEPES) adjusted to pH 7.4 with NaOH. The pipette solution contained (in mM) 155 KCl, 3 MgCl2, 5 EGTA, and 10 HEPES adjusted to pH 7.2 with KOH. […] Stimulation protocols and data acquisition were carried out using a microcomputer (Dell Pentium) with a commercial software and hardware (pClamp 8.2). […] Cells were continuously superfused with microperfusion system.
IKS currents were activated by voltage clamp steps of membrane potentials from −100 to +100 mV in 20-mV steps applied from a holding potential of −80 mV. Tail currents were generated by repolarization to −40 mV. Duration of both depolarization and repolarization pulses was 2.4 s, and the pulse cycling rate was 10 s. […] The amplitudes of IKS and IKR currents were calculated at both the end of the first pulse and the peak of the tail pulse.

Results on eight compounds are retold here after paper PMC4302242 (Psychopharmacology, 2014).

Non-standard residues stand in square brackets, D forms with d. Residues, ends and D or L forms follow the SMILES beside them. Where only a bound is given, the exact number is not on record here.

One may read the IC50 as the concentration needed to halve the response being measured.

hERG channel (IKR), sequence (Q12809 whole entry): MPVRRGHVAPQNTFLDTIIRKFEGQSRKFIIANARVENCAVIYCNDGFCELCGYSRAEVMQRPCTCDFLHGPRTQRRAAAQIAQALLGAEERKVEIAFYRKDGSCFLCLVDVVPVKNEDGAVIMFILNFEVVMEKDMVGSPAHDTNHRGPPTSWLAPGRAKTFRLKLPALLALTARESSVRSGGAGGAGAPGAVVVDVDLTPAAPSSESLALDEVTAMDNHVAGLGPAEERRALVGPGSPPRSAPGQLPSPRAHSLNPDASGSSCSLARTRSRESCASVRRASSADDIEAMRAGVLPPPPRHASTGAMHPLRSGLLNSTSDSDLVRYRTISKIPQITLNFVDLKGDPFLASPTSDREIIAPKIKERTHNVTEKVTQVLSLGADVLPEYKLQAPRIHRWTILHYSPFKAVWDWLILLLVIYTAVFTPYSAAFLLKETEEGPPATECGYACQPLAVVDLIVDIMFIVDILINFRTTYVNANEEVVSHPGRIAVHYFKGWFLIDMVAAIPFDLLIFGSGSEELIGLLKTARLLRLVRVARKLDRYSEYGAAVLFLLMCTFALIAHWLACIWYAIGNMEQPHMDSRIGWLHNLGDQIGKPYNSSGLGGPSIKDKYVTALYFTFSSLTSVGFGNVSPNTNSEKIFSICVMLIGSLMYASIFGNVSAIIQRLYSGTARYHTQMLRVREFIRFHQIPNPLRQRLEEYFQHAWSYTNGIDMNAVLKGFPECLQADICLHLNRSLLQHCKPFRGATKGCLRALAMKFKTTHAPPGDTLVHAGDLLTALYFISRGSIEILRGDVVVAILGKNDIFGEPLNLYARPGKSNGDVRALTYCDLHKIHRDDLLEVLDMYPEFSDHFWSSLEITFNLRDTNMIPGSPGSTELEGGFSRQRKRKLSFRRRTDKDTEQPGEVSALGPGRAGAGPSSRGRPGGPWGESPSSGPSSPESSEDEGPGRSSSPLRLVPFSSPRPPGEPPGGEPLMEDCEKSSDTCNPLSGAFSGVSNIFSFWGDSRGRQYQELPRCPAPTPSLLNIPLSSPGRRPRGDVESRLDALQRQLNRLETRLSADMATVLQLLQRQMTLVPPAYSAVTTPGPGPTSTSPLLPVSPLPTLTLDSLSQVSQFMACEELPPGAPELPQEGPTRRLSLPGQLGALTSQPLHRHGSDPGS
T1 sequence (O95069 whole entry): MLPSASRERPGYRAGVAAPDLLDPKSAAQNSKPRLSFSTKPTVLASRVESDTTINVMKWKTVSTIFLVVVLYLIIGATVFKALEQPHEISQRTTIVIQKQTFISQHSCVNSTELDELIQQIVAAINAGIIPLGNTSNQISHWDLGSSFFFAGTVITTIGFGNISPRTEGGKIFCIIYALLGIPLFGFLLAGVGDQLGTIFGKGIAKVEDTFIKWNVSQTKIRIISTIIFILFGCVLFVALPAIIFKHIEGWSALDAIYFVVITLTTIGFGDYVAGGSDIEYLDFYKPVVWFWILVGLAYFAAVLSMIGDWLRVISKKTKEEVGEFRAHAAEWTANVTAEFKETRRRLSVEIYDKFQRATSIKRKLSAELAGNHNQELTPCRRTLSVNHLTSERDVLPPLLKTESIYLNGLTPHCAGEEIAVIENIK
human-IKS current, sequence (P51787 whole entry): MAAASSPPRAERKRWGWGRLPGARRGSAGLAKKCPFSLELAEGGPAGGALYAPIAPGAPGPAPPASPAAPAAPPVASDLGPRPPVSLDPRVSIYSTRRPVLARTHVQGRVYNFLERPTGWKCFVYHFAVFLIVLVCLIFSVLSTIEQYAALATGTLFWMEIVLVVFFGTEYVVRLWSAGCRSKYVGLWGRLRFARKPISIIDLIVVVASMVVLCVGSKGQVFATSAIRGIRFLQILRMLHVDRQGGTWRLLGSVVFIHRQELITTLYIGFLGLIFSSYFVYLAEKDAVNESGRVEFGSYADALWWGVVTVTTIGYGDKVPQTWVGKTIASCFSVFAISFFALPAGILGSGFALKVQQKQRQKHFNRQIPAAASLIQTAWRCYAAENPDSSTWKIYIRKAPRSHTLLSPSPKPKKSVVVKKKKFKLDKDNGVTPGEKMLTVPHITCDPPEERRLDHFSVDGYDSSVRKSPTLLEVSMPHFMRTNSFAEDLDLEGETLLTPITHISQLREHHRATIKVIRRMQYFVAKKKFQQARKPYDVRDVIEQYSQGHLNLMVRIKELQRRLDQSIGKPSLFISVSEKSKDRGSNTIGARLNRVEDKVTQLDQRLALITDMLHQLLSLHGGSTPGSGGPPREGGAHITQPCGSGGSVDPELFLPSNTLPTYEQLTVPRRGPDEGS

As for “Ac-QDRLDAPPPPAAPLPRWSGPIGVSWGLRAAAAGGAFPRGGRWRR-NH2 [analog 11]”, the “TREK-1 blockade at 100 nM compared with spadin (in words)” value in data set [1] was “reduced blocking effect on TREK-1 channels”.

As to spadin [reference compound], in [2], the “FST immobility time, subchronic treatment” value is reported as 123.70 ± 7.16 s; the “FST immobility time, acute treatment” value was found to be 107.40 ± 5.05 s; the “FST immobility time 1 h after injection (action duration)” value (shortened to “FST immobility time 1 h after injection”) is reported as 102.4 ± 6.2 s; the “FST immobility time 16 h after injection (action duration)” value (“FST immobility time 16 h after injection” for short) is 175.3 ± 7.5 s. Also, the “FST immobility time 3 h after injection (action duration)” value in data set [2] (3 h after injection (order of values follows order of times), saline 170.3 ± 4.5 s) was 113.2 ± 5.0 s. The “FST immobility time 7 h after injection (action duration)” value in data set [2] (7 h after injection (order of values follows order of times), saline 170.3 ± 4.5 s) is 150.8 ± 6.5 s. In addition, the “Biological half-life time measured by the FST” value in [2] (from loss of FST efficacy with time after injection) is reported as “around 6 h”. The “NSF latency to feed, subchronic treatment” value (“NSF latency to feed” for short) in [3] worked out at 151.11 ± 17.70 s. The “Increase of the number of BrdU-positive cells in SGZ versus saline (factor)” value in data set [4] is ≥ 2.

For the compound `CC[C@H](C)[C@H](NC(=O)[C@@H]1CCCN1C(=O)CNC(=O)[C@H](CO)NC(=O)[C@H](Cc1c[nH]c2ccccc12)NC(=O)[C@H](CCCNC(=N)N)NC(=O)[C@@H]1CCCN1C(=O)[C@H](CC(C)C)NC(=O)[C@@H]1CCCN1C(=O)[C@H](C)NC(=O)[C@H](C)NC(=O)[C@@H]1CCCN1C(=O)[C@@H]1CCCN1C(=O)[C@@H]1CCCN1C(=O)[C@@H]1CCCN1C(=O)[C@H](C)NC(=O)[C@H](CC(=O)O)NC(=O)[C@H](CC(C)C)NC(=O)[C@H](CCCNC(=N)N)NC(=O)[C@H](CC(=O)O)NC(=O)[C@H](CCC(N)=O)NC(C)=O)C(=O)NCC(=O)N[C@H](C(=O)N[C@@H](CO)C(=O)N[C@@H](Cc1c[nH]c2ccccc12)C(=O)NCC(=O)N[C@@H](CC(C)C)C(=O)N[C@@H](CCCNC(=N)N)C(N)=O)C(C)C` [analog 7], the “TREK-1 blockade at 100 nM compared with spadin (in words)” value in [1] was “bad inhibitor of TREK-1 channels”.

As for Ac-APLPRWSGPIGVSWGLR-NH2 [analog 2], the 50% inhibitory concentration (IC50) in [5] was found to be 60 ± 0.41 nM.

Take “Ac-APPPPAAPLPRWSGPIGVSWGLR-NH2 [analog 9]”: in [1], the “TREK-1 blockade at 100 nM compared with spadin (in words)” value is recorded as “inhibitory effect close to that of spadin”.

Turning to `CC[C@@H](C)[C@@H](NC(=O)CNC(=O)[C@H](NC(=O)[C@@H](CO)NC(=O)[C@@H](Cc1c[nH]c2ccccc12)NC(=O)CNC(=O)[C@@H](CC(C)C)NC(=O)[C@@H](CCCNC(=N)N)NC(C)=O)C(C)C)C(=O)N1CCC[C@@H]1C(=O)NCC(=O)N[C@H](CO)C(=O)N[C@H](Cc1c[nH]c2ccccc12)C(=O)N[C@H](CCCNC(=N)N)C(=O)N1CCC[C@@H]1C(=O)N[C@H](CC(C)C)C(=O)N1CCC[C@@H]1C(=O)N[C@H](C)C(=O)N[C@H](C)C(=O)N1CCC[C@@H]1C(=O)N1CCC[C@@H]1C(=O)N1CCC[C@@H]1C(=O)N1CCC[C@@H]1C(=O)N[C@H](C)C(=O)N[C@H](CC(=O)O)C(=O)N[C@H](CC(C)C)C(=O)N[C@H](CCCNC(=N)N)C(=O)N[C@H](CC(=O)O)C(=O)N[C@H](CCC(N)=O)C(N)=O` [analog 8] (Ac-[dR][dL]G[dW][dS][dV]G[dI][dP]G[dS][dW][dR][dP][dL][dP][dA][dA][dP][dP][dP][dP][dA][dD][dL][dR][dD][dQ]-NH2), in data set [1], the “TREK-1 blockade at 100 nM compared with spadin (in words)” value was “increased blockade effect when compared to spadin”. Further, in [2], the “FST immobility time, subchronic treatment” value was found to be 124.1 ± 10.53 s; the “FST immobility time, acute treatment” value was 83.60 ± 9.01 s; the “FST immobility time 1 h after injection” value turned out to be 121.7 ± 5.2 s; the “FST immobility time 16 h after injection” value turned out to be 129.1 ± 12.0 s. In [3], the “NSF latency to feed” value is given as 167.00 ± 22.96 s. In data set [6], the Tail withdrawal time turned out to be 13.85 ± 0.72 s. This compound also registered a concentration for half-maximal inhibition (IC50) in data set [5] of 9.95 ± 0.85 nM.

In the case of “Ac-[dR][dR][dW][dR]GG[dR][dP][dF][dA]GG[dA][dA][dA][dA][dR][dL]G[dW][dS][dV]G[dI][dP]G[dS][dW][dR][dP][dL][dP][dA][dA][dP][dP][dP][dP][dA][dD][dL][dR][dD][dQ]-NH2 [analog 12]”, the “TREK-1 blockade at 100 nM compared with spadin (in words)” value in data set [1] is recorded as “did not display a better efficacy”.

For the compound `CC[C@@H](C)[C@@H](NC(=O)CNC(=O)[C@H](NC(=O)[C@@H](CO)NC(=O)[C@@H](Cc1c[nH]c2ccccc12)NC(=O)CNC(=O)[C@@H](CC(C)C)NC(=O)[C@@H](CCCNC(=N)N)NC(C)=O)C(C)C)C(=O)N1CCC[C@@H]1C(=O)NCC(=O)N[C@H](CO)C(=O)N[C@H](Cc1c[nH]c2ccccc12)C(=O)N[C@H](CCCNC(=N)N)C(=O)N1CCC[C@@H]1C(=O)N[C@H](CC(C)C)C(=O)N1CCC[C@@H]1C(=O)N[C@H](C)C(N)=O` [analog 3] (Ac-[dR][dL]G[dW][dS][dV]G[dI][dP]G[dS][dW][dR][dP][dL][dP][dA]-NH2), the “TREK-1 blockade at 100 nM compared with spadin (in words)” value in data set [1] was “increased blockade effect when compared to spadin”. In [2], the “FST immobility time, subchronic treatment” value is reported as 114.9 ± 9.82 s; the “FST immobility time, acute treatment” value worked out at 135.10 ± 8.11 s; the “FST immobility time 1 h after injection” value stood at 123.4 ± 7.0 s; the “FST immobility time 16 h after injection” value amounted to 129.6 ± 12.7 s. Also, the “NSF latency to feed” value in [3] is 143.88 ± 23.42 s. The “Locomotor activity versus saline-treated mice (coming-and-going, climbing, total movements)” value in data set [7] was “no significant difference”. Besides, under “10 nmol i.v. (100 μL of 100 μM, caudal vein), 30 min after injection, acidic extraction, RP18 HPLC, standard curve 50-200 pmol, estimated”, the “Amount recovered in a half brain” value was ~100 pmol. Further, the “Yield to cross the blood-brain-barrier” value (10 nmol i.v., 30 min after injection, amount per brain relative to injected amount) is listed as ~2%. In addition, for the setting “10 nmol i.v., 30 min after injection, extrapolated from a half brain”, the “Amount recovered per brain” value is ~200 pmol. Also, where the note is “10 nmol i.v., 60 min after injection”, the “HPLC peak in brain extract 60 min after injection” value was “disappeared after 60 min”. Moreover, the Tail withdrawal time in [6] is on record as 11.32 ± 1.04 s. In data set [8] (1 μg/kg i.v., n = 10), the “Effect on kaïnate-triggered seizures, 1 μg/kg” value was “no protective effect”. In data set [8] (10 μg/kg i.v., n = 10, monitored 2 h), the “Effect on kaïnate-triggered seizures, 10 μg/kg” value is “important protective effect”. Further, the “Number of mice reaching the two less severe seizure stages (immobility, head or neck movements)” value in data set [8] (10 μg/kg i.v., n = 10, saline: at least 9 among 10, five died) is on record as “two mice among 10”. Moreover, the “Effect on IKR current” value in data set [9] (HEK cells expressing hERG) is given as “did not modify currents”. In addition, the “IKR tail current density at 0 mV in the presence of the analog” value in data set [9] (n = 5, mean ± SEM, control 204.59 ± 34.18 pA/pF) was 212.99 ± 38.38 pA/pF. In [9] (n = 5, mean ± SEM, control 225.14 ± 33.09 pA/pF), the “IKR current density at 0 mV, end of first pulse, in the presence of the analog” value stood at 224.48 ± 35.94 pA/pF. Besides, the “Effect on IKS current” value in [10] (HEK-IKS cells) is listed as “did not modify currents”. In addition, the “IKS tail current density at 0 mV in the presence of the analog” value in data set [10] (n = 5, mean ± SEM, control 8.33 ± 1.78 pA/pF) stood at 8.33 ± 2.06 pA/pF. The “IKS current density at 0 mV, end of pulse, in the presence of the analog” value in data set [10] (n = 5, mean ± SEM, control 17.65 ± 3.84 pA/pF) came out at 17.58 ± 4.03 pA/pF. In data set [5], this compound displayed an IC50 of 11.5 ± 0.59 nM.
